The subject of test [1] is wildtype and homozygous mutant N370S GC fibroblasts. Description: Chaperone activity: translocation of GC to the lysosome in fibroblasts. To be noted: for amount of GC localized to the lysosome: 1 nM to 25 uM, five days incubation, wildtype and mutant fibroblasts; for lysosomal GC protein after treatment: 10 uM, wildtype and N370S GC fibroblasts, GC and LAMP1 antibody staining. The format is cell-based, human.

For test [2], the target named is T1, N370S glucocerebrosidase (GC) in tissue homogenate (Homo sapiens, UniProt P04062, N409S).
T1 sequence (P04062 40-536 N409S): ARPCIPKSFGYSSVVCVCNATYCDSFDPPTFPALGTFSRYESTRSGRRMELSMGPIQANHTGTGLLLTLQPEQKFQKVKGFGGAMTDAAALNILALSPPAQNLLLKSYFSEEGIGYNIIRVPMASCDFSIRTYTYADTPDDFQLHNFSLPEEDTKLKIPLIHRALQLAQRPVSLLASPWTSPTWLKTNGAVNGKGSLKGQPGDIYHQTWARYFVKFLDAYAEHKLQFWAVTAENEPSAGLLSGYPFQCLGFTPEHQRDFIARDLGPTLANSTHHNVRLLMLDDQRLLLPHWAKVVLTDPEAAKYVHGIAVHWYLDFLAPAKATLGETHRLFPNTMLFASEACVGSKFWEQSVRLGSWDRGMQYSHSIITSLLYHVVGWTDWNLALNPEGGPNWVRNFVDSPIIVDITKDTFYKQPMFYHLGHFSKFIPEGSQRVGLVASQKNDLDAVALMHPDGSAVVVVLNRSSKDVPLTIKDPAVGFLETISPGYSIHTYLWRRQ
The format is biochemical. To be noted: for reduction of activity (fold, relative to 26ad): N370S tissue homogenate AC50 compared with parent quinazoline 26ad.

For another test, the system named is purified GC. The test can be described thus: Purified enzyme assays of GC activity without exogenous cofactors. It is filed as biochemical. As to conditions: no exogenous activating cofactors.

With `O=S(=O)(c1ccc2c(c1)OCCO2)N1CCN(c2nc(-c3cccs3)nc3ccccc23)CC1` [Compound 26bs, 4-(4-(2,3-dihydrobenzo[b][1,4]dioxin-6-ylsulfonyl)piperazin-1-yl)-2-(thiophen-2-yl)quinazoline], the “amount of GC localized to the lysosome” value in test [1] was “clear increase of the amount of GC localized to the lysosome”. As to `Cc1ccc(S(=O)(=O)N2CCN(c3nc(-c4cccs4)nc4cccnc34)CC2)cc1` [Compound 72, 2-(thiophen-2-yl)-4-(4-tosylpiperazin-1-yl)pyrido[3,2-d]pyrimidine], the “reduction of activity (fold, relative to 26ad)” value in test [2] is on record as “at least 10 times”. Take `OC[C@H]1CNC[C@@H](O)[C@@H]1O` [Isofagomine, reference compound]: the “lysosomal GC protein after treatment” value in test [1] is on record as “increased lysosomal GC protein”.

Consider `Cc1ccc(S(=O)(=O)N2CCN(c3ccnc(-c4cccs4)n3)CC2)cc1` [Compound 74, 2-(thiophen-2-yl)-4-(4-tosylpiperazin-1-yl)pyrimidine], for which, in test [2], the “reduction of activity (fold, relative to 26ad)” value worked out at 32 times. `O=S(=O)(c1ccc2ccccc2c1)N1CCN(c2nc(-c3cccs3)nc3ccccc23)CC1` [Compound 14]: in test [1], the “amount of GC localized to the lysosome” value is on record as “clear increase of the amount of GC localized to the lysosome” and the “lysosomal GC protein after treatment” value is given as “increased lysosomal GC protein”. By IC50 is commonly meant the concentration at which inhibition is half-maximal. A high value points to lower potency. On to `Cc1ccc(S(=O)(=O)N2CCN(c3nc(-c4cccs4)nc4ccccc34)CC2)cc1` [Compound 26ad, 4-(4-(4-methylphenylsulfonyl)piperazin-1-yl)-2-(thiophen-2-yl)quinazoline], for which, in test [1], the “amount of GC localized to the lysosome” value is recorded as “clear increase of the amount of GC localized to the lysosome”. Further, in test [2] ("blue" GC enzyme assay, tissue homogenate), the IC50 was 320 nM. In the case of `COc1ccccc1S(=O)(=O)N1CCN(c2nc(-c3cccs3)nc3ccccc23)CC1` [Compound 26ai, 4-(4-(2-methoxyphenylsulfonyl)piperazin-1-yl)-2-(thiophen-2-yl)quinazoline], the “amount of GC localized to the lysosome” value in test [1] was “clear increase of the amount of GC localized to the lysosome”. Consider `O=S(=O)(c1ccc(Cl)cc1)N1CCN(c2nc(-c3cccs3)nc3ccccc23)CC1` [Compound 10, 4-(4-(4-chlorophenylsulfonyl)piperazin-1-yl)-2-(thiophen-2-yl)quinazoline], for which the “activity in purified enzyme assays of GC compared with tissue homogenate” value in the test on purified GC is recorded as “greatly diminished”. For `Cc1ccc(S(=O)(=O)N2CCN(c3nc(-c4cccs4)nc4ncccc34)CC2)cc1` [Compound 73, 2-(thiophen-2-yl)-4-(4-tosylpiperazin-1-yl)pyrido[2,3-d]pyrimidine], the “reduction of activity (fold, relative to 26ad)” value in test [2] is on record as “at least 10 times”. On the same count and under the same terms, then `Cc1ccc(S(=O)(=O)N2CCN(c3nc(-c4cccs4)nc(C)c3C)CC2)cc1` [Compound 76, 4,5-dimethyl-2-(thiophen-2-yl)-6-(4-tosylpiperazin-1-yl)pyrimidine], with 10 times.

The values are drawn from article PMC3103057 (Journal of medicinal chemistry, 2011).
